Data on two molecules can be found in article PMC4261083, “An atypical residue in the pore of Varroa destructor GABA-activated RDL receptors affects picrotoxin block and thymol modulation” (Insect Biochemistry and Molecular Biology, 2014).

Changes are numbered by the printed parent chain.

What all share (type): cell-based
The target in experiment [1] is T1, 4M2 mutant Drosophila RDL receptor (N-7′H, T6′M, A20′S and A21′Q) (Drosophila melanogaster, UniProt P25123, A319S/A320Q/N292H/T305M).
T1 construct: expressed in transfected cells; host or cells: Xenopus laevis oocytes injected with cRNA
T1 sequence (P25123 45-606 N292H/T305M/A319S/A320Q): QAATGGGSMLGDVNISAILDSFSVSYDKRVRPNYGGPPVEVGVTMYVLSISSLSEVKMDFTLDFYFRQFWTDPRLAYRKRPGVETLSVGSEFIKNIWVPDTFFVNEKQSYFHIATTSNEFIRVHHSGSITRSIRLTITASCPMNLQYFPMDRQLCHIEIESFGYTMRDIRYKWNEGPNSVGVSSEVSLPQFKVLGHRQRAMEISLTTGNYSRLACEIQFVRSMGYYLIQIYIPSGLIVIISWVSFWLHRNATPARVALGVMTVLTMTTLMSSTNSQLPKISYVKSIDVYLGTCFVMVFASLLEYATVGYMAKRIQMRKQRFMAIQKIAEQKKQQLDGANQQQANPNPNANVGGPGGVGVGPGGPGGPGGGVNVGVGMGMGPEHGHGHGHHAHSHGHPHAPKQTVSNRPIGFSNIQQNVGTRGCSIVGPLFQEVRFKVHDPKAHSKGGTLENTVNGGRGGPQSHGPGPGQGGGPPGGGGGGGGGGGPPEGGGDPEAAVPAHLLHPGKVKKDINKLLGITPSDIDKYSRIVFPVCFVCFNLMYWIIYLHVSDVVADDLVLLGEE
The note with it: 4M2 RDL. On the procedure:
(§1) X. laevis oocyte-positive females were purchased from NASCO (Fort Atkinson, Wisconsin, USA) and maintained according to standard methods. Harvested stage V-VI Xenopus oocytes were washed in four changes of ND96 (96 mM NaCl, 2 mM KCl, 1 mM MgCl2, 1 mM CaCl2, 5 mM HEPES, pH 7.5), de-folliculated in 1.5 mg ml^−1 collagenase Type 1A for approximately 2 h, washed again in four changes of ND96 and stored in ND96 containing 2.5 mM sodium pyruvate, 0.7 mM theophylline and […].
(§2) Site directed mutagenesis was performed with the QuikChange mutagenesis kit (Agilent, La Jolla, CA). cRNA was transcribed in vitro from linearised pGEMHE cDNA template using the mMessage mMachine T7 Transcription kit (Ambion, Austin, Texas, USA). Stage V and VI oocytes were injected with 5 ng cRNA, incubated at 18 °C, and currents recorded 18–24 h post-injection.
(§3) Currents were recorded at 5 kHz and filtered at a frequency of 1 kHz. Micro-electrodes were fabricated from borosilicate glass (GC120TF-10, Harvard Apparatus, Edenbridge, Kent, UK) using a one stage horizontal pull (P-87, Sutter Instrument Company, California, USA) and filled with 3 M KCl. […] Oocytes were perfused with ND96 at a constant rate of 12 ml min^−1. Drug application was via a simple gravity fed system calibrated to run at the same rate.
(§4) Analysis and curve fitting was performed using Prism v5 (GraphPad Software, San Diego, California, USA). Concentration-response data for each oocyte was normalised to the maximum current for that oocyte. The mean and S.E.M. for a series of oocytes were fitted to the four parameter logistic equation in Prism.

In experiment [2] the target is T2, A20′S mutant Drosophila RDL receptor (Drosophila melanogaster, UniProt P25123, A319S).
T2 construct: expressed in transfected cells; host or cells: Xenopus laevis oocytes injected with cRNA
T2 sequence (P25123 45-606 A319S): T1 sequence (P25123 45-606 N292H/T305M/A319S/A320Q) with H248N, M261T, Q276A
Nature of the experiment: GABA activation of RDL receptors, two electrode voltage clamp in Xenopus oocytes. On the procedure: as §1, §2, §3, §4
Background: In two-electrode clamp one electrode senses voltage and the other passes current.

In experiment [3] the target is T3, wild type Drosophila RDL receptor (Drosophila melanogaster, UniProt P25123).
T3 construct: expressed in transfected cells; host or cells: Xenopus laevis oocytes injected with cRNA
T3 sequence (P25123 45-606): T1 sequence (P25123 45-606 N292H/T305M/A319S/A320Q) with H248N, M261T, S275A, Q276A
The experiment is described as above. On the procedure: as §1, §2, §3, §4

Consider `Cc1ccc(C(C)C)c(O)c1` [Thymol, thymol], for which the “Effect of thymol on GABA-induced responses” value in experiment [1] (100 μM thymol, at some GABA concentrations) is listed as “inhibition”. Further, in experiment [1] (GABA EC50 control vs +100 μM thymol), the “Fold change in EC50” value amounted to 3.0. Besides, the “% Imax” value in experiment [1] (GABA concentration-response in presence of 100 μM thymol) turned out to be 52 ± 4%.

In the case of `NCCCC(=O)O` [GABA], the entries for the “GABA nH (Hill slope)” value in experiment [2] and in experiment [3] were 1.6 ± 0.4 and 1.6 ± 0.5, respectively.
